Assay results as given in patent publication US4849425A, “Readily absorbable pharmaceutical composition” (Ishihara Sangyo Kaisha Ltd., priority 1985, dated 1989).
Converted amounts (≈) assume the structure as drawn.

Assays:
[1] = Absorbability through the gut, oral, aqueous and non-aqueous dispersing solvents, plasma concentration in rats (Test Example 5); type: in vivo, Wistar male rats; conditions: rat; for absorption: oral; for concentration at 1 h / concentration at 3 h / concentration at 5 h / concentration at 24 h: plasma, po, 20 mg/kg
Method: 20 mg of Compound No. 3 was taken into a mortar, and 5 ml of an aqueous solution containing 1.7% of β-type cyclodextrin or 2% or 40% of dimethyl β-type cyclodextrin was added under stirring to obtain a suspension of Compound No. 3. The suspension was orally administered by an oral sonde to a group of three Wistar male rats (body weight: 200-250g). The dose of Compound No. 3 was 20 mg/kg rat body weight. Further, Compound No. 3 was likewise suspended in an aqueous solution containing 0.5% of sodium salt of carboxymethyl cellulose, and the suspension was used as the control ( in FIG. 3). After the administration, the blood was periodically sampled, and the plasma was separated. After the removal of protein by acetonitrile, Compound No. 3 in the plasma was quantitatively analyzed by a high speed liquid chromatography as shown in Test Example 1.
The changes with time of the concentration of Compound No. 3 in the plasma after the oral administration were studied in the same manner as in Test Example 3 by using an aqueous solution of 10% (weight/volume) hydroxypropyl cellulose (HPC-L, manufactured by Nippon Soda Co., Ltd.), 2.5% (weight/volume) methyl cellulose (Metrose SM 15,manufactured by Shin-Etsu Chemical Co., Ltd.), 10% (weight/volume) hydroxypropylmethyl cellulose (Metrose TC5R, manufactured by Shin-Etsu Chemical Co., Ltd.), 2.5% (weight/volume) sodium salt of carboxymethyl cellulose (manufactured by Wako Junyaku K.K.), 10% (weight/volume) sucrose fatty acid ester (P1570, manufactured by Hishito K.K.) or 10% (weight/volume) pluronic F 68 (manufactured by Asahi Denka Kogyo K.K.), as an aqueous dispersing solvent for Compound No. 3, and medium-chain length fatty acid triglyceride (ODO, manufactured by Nisshin Seiyu K.K.), ODO containing 5% (weight/volume) sucrose fatty acid ester (S-370F, manufactured by Hishito K.K.), or a refined soybean oil (The Green Cross Corporation) or refined sesame oil (Takemoto Yushi K.K.) containing 5% (weight/volume) of S-370F, as a non-aqueous dispersing solvent, and an aqueous solution of 50% (weight/volume) dimethyl β-type cyclodextrin and an aqueous solution of 0.5% (weight/volume) sodium carboxymethyl cellulose, as the control.

[2] = Solubility of Compound No. 3 in aqueous cyclodextrin solutions or polyethylene glycol 400 at 25° C. (Test Example 2); type: physicochemical
Method: 0.1 μmol of Compound No. 1 or No. 2 was added to 1 ml of an aqueous solution of each cyclodextrin with a concentration of from 0 to 8 mM, and the mixture was shaken at 25° C. for 100 hours. After completion of the shaking, the mixture was filtered through a millipore filter of 0.45 μm to obtain a filtrate.
Separation column: As the packing material, octadecylated silica gel was filled in a stainless steel tube having an internal diameter of from 0.39 to 4.6 mm and a length of from 100 to 300 mm.
Column temperature: 30° C.
Mobile phase: Mixture of acetonitrile-water (the mixing ratio was adjusted so that the eluting time of the drug becomes from 5 to 10 minutes).
Wave length for detection: 265 nm
7.5 mg of […]. was added to 1 ml of an aqueous solution of each cyclodextrin at various concentrations or to 1 ml of polyethylene glycol 400, and the solubility of Compound No. 3 at 25° C. was obtained in the same manner as the Test Example b 1.

[3] = Oral capsules, plasma concentration in beagle dogs (Test Example 7); type: in vivo; conditions: for Concentration in the plasma: 0
Method: The capsules prepared in Example 3 corresponding to 20 mg/kg of Compound No. 3 were orally administered to three beagle dogs (male: body weight: 5 kg). Then, the blood was periodically sampled from the branchium vein, and the concentration of Compound No. 3 in the plasma was measured. To the control group, a suspension of Compound No. 3 (20 mg/ml) in an aqueous solution containing 0.5% of sodium salt of carboxymethyl cellulose was administered. It is evident that the present invention, the absorbability of Compound No. 3 increased.

[4] = 0.5% (w/v) sodium salt of carboxymethyl cellulose (control), oral 20 mg/kg
[5] = 2.5% (w/v) methyl cellulose, oral 20 mg/kg
[6] = 2.5% (w/v) sodium salt of carboxymethyl cellulose, oral 20 mg/kg
[7] = 5% (w/v) Pluronic F31/ODO, oral 20 mg/kg
[8] = 5% (w/v) sucrose fatty acid ester/ODO, oral 20 mg/kg
[9] = 5% (w/v) sucrose fatty acid ester/refined sesame oil, oral 20 mg/kg
[10] = 5% (w/v) sucrose fatty acid ester/refined soybean oil, oral 20 mg/kg
[11] = 10% (w/v) Pluronic F68, oral 20 mg/kg
[12] = 10% (w/v) hydroxypropyl cellulose, oral 20 mg/kg
[13] = 10% (w/v) hydroxypropylmethyl cellulose, oral 20 mg/kg
[14] = 10% (w/v) sucrose fatty acid ester, oral 20 mg/kg
[15] = 50% (w/v) dimethyl β-type cyclodextrin, oral 20 mg/kg
[16] = medium-chain length fatty acid triglyceride (ODO), oral 20 mg/kg
[17] = dog, plasma, po, 20 mg/kg, control, suspension in 0.5% sodium salt of carboxymethyl cellulose
[18] = dog, plasma, po, 20 mg/kg, polyethylene glycol 400 capsules of Example 3, oral 20 mg/kg

With `O=C(NC(=O)c1ccccc1[N+](=O)[O-])Nc1ccc(Oc2ncc(Br)cn2)c(Cl)c1` [Compound No. 3, N-(2-nitrobenzoyl)-N'-[4-(5-bromo-2-pyrimidinyloxy)-3-chlorophenyl]urea] the absorption ([1]; 50% (w/v) dimethyl β-type cyclodextrin, among the aqueous dispersing solvents) was “highest absorption”, the absorption ([1]; ODO containing 5% (w/v) Pluronic F32) was “high absorption” and the concentration at 1 h [1, 4] was 30 ng/mL. The concentration at 3 h [1, 4] was 100 ng/mL, the concentration at 5 h [1, 4] was 150 ng/mL and the concentration at 24 h [1, 4] was 10 ng/mL. It also gave a concentration at 1 h [1, 5] of 60 ng/mL, a concentration at 3 h [1, 5] of 110 ng/mL and a concentration at 5 h [1, 5] of 110 ng/mL. It also gave a concentration at 24 h [1, 5] of 30 ng/mL, a concentration at 1 h [1, 6] of 40 ng/mL and a concentration at 3 h [1, 6] of 110 ng/mL. It also gave a concentration at 5 h [1, 6] of 90 ng/mL, a concentration at 24 h [1, 6] of 90 ng/mL and a concentration at 1 h [1, 7] of 100 ng/mL. The concentration at 3 h [1, 7] was 200 ng/mL, the concentration at 5 h [1, 7] was 220 ng/mL and the concentration at 24 h [1, 7] was 470 ng/mL. For the same compound, the concentration at 1 h [1, 8] was 60 ng/mL, the concentration at 3 h [1, 8] was 180 ng/mL and the concentration at 5 h [1, 8] was 200 ng/mL. The concentration at 24 h [1, 8] was 220 ng/mL, the concentration at 1 h [1, 9] was 140 ng/mL and the concentration at 3 h [1, 9] was 490 ng/mL. It also gave a concentration at 5 h [1, 9] of 570 ng/mL, a concentration at 24 h [1, 9] of 370 ng/mL and a concentration at 1 h [1, 10] of 120 ng/mL. The concentration at 3 h [1, 10] was 500 ng/mL, the concentration at 5 h [1, 10] was 550 ng/mL and the concentration at 24 h [1, 10] was 390 ng/mL. For the same compound, the concentration at 1 h [1, 11] was 110 ng/mL, the concentration at 3 h [1, 11] was 190 ng/mL and the concentration at 5 h [1, 11] was 230 ng/mL. It also gave a concentration at 24 h [1, 11] of 120 ng/mL, a concentration at 1 h [1, 12] of 50 ng/mL and a concentration at 3 h [1, 12] of 120 ng/mL. The concentration at 5 h [1, 12] was 110 ng/mL, the concentration at 24 h [1, 12] was 40 ng/mL and the concentration at 1 h [1, 13] was 140 ng/mL. The concentration at 3 h [1, 13] was 310 ng/mL, the concentration at 5 h [1, 13] was 280 ng/mL and the concentration at 24 h [1, 13] was 100 ng/mL. For the same compound, the concentration at 1 h [1, 14] was 40 ng/mL, the concentration at 3 h [1, 14] was 180 ng/mL and the concentration at 5 h [1, 14] was 180 ng/mL. It also gave a concentration at 24 h [1, 14] of 240 ng/mL, a concentration at 1 h [1, 15] of 280 ng/mL and a concentration at 3 h [1, 15] of 580 ng/mL. The concentration at 5 h [1, 15] was 490 ng/mL, the concentration at 24 h [1, 15] was 360 ng/mL and the concentration at 1 h [1, 16] was 120 ng/mL. For the same compound, the concentration at 3 h [1, 16] was 170 ng/mL, the concentration at 5 h [1, 16] was 210 ng/mL and the concentration at 24 h [1, 16] was 240 ng/mL. For the same compound, the absorption ([1]; refined soybean oil or refined sesame oil containing 5% (w/v) sucrose fatty acid ester, among the non-aqueous dispersing solvents) was “high absorption almost equal to dimethyl β-type cyclodextrin”, the solubility ([2]; aqueous dimethyl α-type cyclodextrin, dimethyl α-type cyclodextrin 17.5 mg/ml, aqueous) was 0.294 µg/mL (≈ 0.597 µM) and the solubility ([2]; aqueous dimethyl β-type cyclodextrin, dimethyl β-type cyclodextrin 20.0 mg/ml, aqueous) was 24.1 µg/mL (≈ 48.9 µM). The solubility ([2]; aqueous dimethyl β-type cyclodextrin, dimethyl β-type cyclodextrin 140 mg/ml, aqueous) was 5180 µg/mL (≈ 10500 µM), the solubility ([2]; aqueous dimethyl β-type cyclodextrin, dimethyl β-type cyclodextrin 500 mg/ml, aqueous) was 7440 µg/mL (≈ 15100 µM) and the solubility ([2]; aqueous solution, no additives, aqueous solution containing no additives) was 0.024 µg/mL (≈ 0.0487 µM). It also gave a solubility ([2]; aqueous trimethyl β-type cyclodextrin, trimethyl β-type cyclodextrin 21.4 mg/ml, aqueous) of 1 µg/mL (≈ 2.03 µM), a solubility ([2]; aqueous trimethyl β-type cyclodextrin, trimethyl β-type cyclodextrin 100 mg/ml, aqueous) of 13.4 µg/mL (≈ 27.2 µM) and a solubility ([2]; aqueous trimethyl β-type cyclodextrin, trimethyl β-type cyclodextrin 200 mg/ml, aqueous) of 30.4 µg/mL (≈ 61.7 µM). It also gave a solubility ([2]; aqueous α-type cyclodextrin 14.6 mg/ml, α-type cyclodextrin 14.6 mg/ml, aqueous) of 0.164 µg/mL (≈ 0.333 µM), a solubility ([2]; aqueous β-type cyclodextrin 17.0 mg/ml, β-type cyclodextrin 17.0 mg/ml, aqueous) of 1.64 µg/mL (≈ 3.33 µM) and a solubility ([2]; polyethylene glycol 400, organic solvent or mixture, polyethylene glycol 400, 100%) of 7500 µg/mL (≈ 15200 µM). The “Concentration in the plasma” value ([3]; control, suspension in 0.5% sodium salt of carboxymethyl cellulose, oral) was 0 ng/mL, the concentration at 1 h [3, 17] was 70 ng/mL and the concentration at 2 h [3, 17] was 100 ng/mL. The concentration at 1 h [3, 18] was 610 ng/mL, the concentration at 2 h [3, 18] was 1120 ng/mL and the concentration at 4 h ([3]; dog, plasma, po, 20 mg/kg, polyethylene glycol 400 capsules of Example 3, oral 20 mg/kg, 4 hrs) was 1110 ng/mL. For the same compound, the absorbability ([3]; polyethylene glycol 400 capsules of Example 3, oral) was “increased” and the “Concentration in the plasma” value ([3]; polyethylene glycol 400 capsules of Example 3, oral 20 mg/kg) was 0 ng/mL.
